Source: patent US20070054902A1, “Isoxazole derivatives as peroxisome proliferator-activated receptors agonists” (SHIONOGI & CO., LTD., priority 2003, published 2007)

How the values were obtained:
human PPARδ (hPPARδ) = target: T1, human PPARδ (hPPARδ) (Homo sapiens, UniProt Q03181); assay: Test for transcriptional activity of PPARδ (GAL4 chimeric transcription-factor reporter assay in CHO cells); type: cell-based; details: GAL4-hPPARδ LBD chimeric reporter in CHO cells
T1 construct: δ:aa 139-C-end; expressed in transfected cells
T1 sequence (Q03181 139-441 limits assumed): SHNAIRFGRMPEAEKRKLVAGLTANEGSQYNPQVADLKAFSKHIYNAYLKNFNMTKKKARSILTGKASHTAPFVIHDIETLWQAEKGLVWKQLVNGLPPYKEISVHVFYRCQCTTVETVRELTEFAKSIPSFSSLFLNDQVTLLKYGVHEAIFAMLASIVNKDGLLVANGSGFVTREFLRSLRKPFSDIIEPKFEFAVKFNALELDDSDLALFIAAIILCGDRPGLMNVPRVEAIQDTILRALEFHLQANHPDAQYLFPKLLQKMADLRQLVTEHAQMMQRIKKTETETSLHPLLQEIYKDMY
Source text: A chimeric transcription-factor assay, which is commonly used to detect nuclear receptor activity, was employed to measure PPAR transcriptional activity. Specifically, two plasmids, one that expresses the fusion protein of DNA binding domain of yeast transcription factor GAL4 and a ligand binding domain of a receptor, and a reporter plasmid were transiently transfected to CHO cells. The activity of the promoter containing a recognition sequence of GAL4 coded on the reporter plasmid was used as a parameter to estimate the activity of the receptor.
Then, each obtained cDNA-fragment was subcloned into pBIND vector (Promega) to construct a plasmid expressing the fusion protein with DNA binding domain of yeast transcription factor. GAL4. pG51uc vector (Promega) was used as a reporter plasmid.
Cell culturing and transfection: CHO cells were cultured in 10% FBS-αMEM. With a 96-well plate (Costar), CHO cells, that were dispersed with trypsin treatment, 20000 cells per well and the two plasmids obtained by the above procedure, 25 ng per well, were transfected with FuGene Reagent (Roche) by following the instruction of the manufacture.
Measurement of the transcriptional activity: CHO cells 100 μl per well, which were transfected as above, were dispensed into the wells in which a test compound dissolved in DMSO 0.5 μl was spotted in advance. After the cells and a test compound were cultured together for 24 hours in a CO2 incubator, the luciferase activity was measured by adding luciferase substrates, PicaGene LT2.0 (Toyo ink) 100 μl per well. LUMINOUS CT9000D (DIA-IATRON) is used to measure the activity.

CYP2C9 = target: T2, CYP2C9 (Homo sapiens, UniProt P11712); assay: Test for inhibition of CYP2C9 enzyme (tolbutamide 4-position hydration, human liver microsomes); type: in vitro ADME; details: pH 7.4, probe tolbutamide (14C labeled), 5 µM, human liver microsomes 0.25 mg/ml, 5 μM tolbutamide, 37° C., solvent control = 100%, read-out: Residual activity (%) CYP2C9
T2 construct: the protein concentration, 0.25 mg/ml (human liver microsomes, 15 pol, Lot. 210296, XenoTech); tissue XenoTech Lot; 210296; host or cells: human liver microsomes (pooled)
Method: The reaction condition is as below. A substrate, 5 μM Tolbutamide (14C labeled compound); the reaction time, 30 minutes; the reaction temperature, 37° C.; the protein concentration, 0.25 mg/ml (human liver microsomes, 15 pol, Lot. 210296, XenoTech).
To the HEPES Buffer (pH 7.4), is added the protein (human liver microsomes), a drug solution and a substrate with the composition as the above. NADPH, which is a coenzyme of the reaction, is added thereto to start the reaction. After reacting for the fixed hours, 2N hydrochloric acid solution is added thereto and the reaction is stopped by removing protein. The remaining substrate drug and the generating metabolite are extracted with chloroform. The solvent is removed and the residue is redissolved in methanol. This solution was spotted on TLC, developed with chloroform:methanol: acetic acid=90:10:1, contacted on the imaging plate for about 14-20 hours and analyzed by BAS2000. As to the generation activity of the metabolite, Tolbutamide 4-potition hydration body, the activity in case that the solvent dissolving a drug is added to the reaction assay is used as a control (100%). The residual activity (%) in case that the test drug solution is added to the reaction is calculated.

[1] = 24 hours, concentration showing 1/2 of maximum luciferase activity (Table 166)

T2 sequence (P11712 whole entry): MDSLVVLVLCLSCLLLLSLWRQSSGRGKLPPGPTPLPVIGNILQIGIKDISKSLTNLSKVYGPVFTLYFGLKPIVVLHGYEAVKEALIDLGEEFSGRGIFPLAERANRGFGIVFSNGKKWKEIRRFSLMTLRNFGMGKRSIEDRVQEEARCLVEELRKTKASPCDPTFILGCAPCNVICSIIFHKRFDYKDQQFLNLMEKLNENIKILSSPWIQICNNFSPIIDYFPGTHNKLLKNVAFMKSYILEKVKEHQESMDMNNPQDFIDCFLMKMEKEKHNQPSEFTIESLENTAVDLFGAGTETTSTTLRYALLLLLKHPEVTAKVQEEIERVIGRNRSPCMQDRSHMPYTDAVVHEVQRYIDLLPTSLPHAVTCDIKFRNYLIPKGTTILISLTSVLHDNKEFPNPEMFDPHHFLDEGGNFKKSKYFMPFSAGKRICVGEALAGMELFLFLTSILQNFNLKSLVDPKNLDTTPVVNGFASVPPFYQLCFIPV

melting point [°C] | EC50 (human PPARδ (hPPARδ); [1]) [nM] | activity at 30 min (CYP2C9) [%] | EC50 (human PPARδ (hPPARδ); 24 hours (Table 168)) [nM] | Structure (SMILES)
105 to 107 | – | – | – | COCc1c(COc2ccc(OCC(=O)O)c(C)c2)noc1-c1ccc(C(F)(F)F)cc1 [α-5-1, {4-[4-Methoxymethyl-5-(4-trifluoromethylphenyl)-isoxazole-3-ylmethoxy]-2-methyl-phenoxy}-acetic acid]
133 to 134 | – | – | – | COC(=O)COc1ccc(C(=O)CCc2noc(-c3ccc(C(F)(F)F)cc3)c2C)cc1C [α-6-3-1, (2-Methyl-4-{3-[4-methyl-5-(4-trifluoromethylphenyl)-isoxazole-3-yl]-propionyl}-phenoxy)-acetic acid methyl ester]
191 to 194 | – | – | – | Cc1cc(C(=O)CCc2noc(-c3ccc(C(F)(F)F)cc3)c2C)ccc1OCC(=O)O [α-6-4-1, (2-Methyl-4-{3-[4-methyl-5-(4-trifluoromethylphenyl)-isoxazole-3-yl]-propionyl}-phenoxy)-acetic acid]
203 to 204.5 | 9.5 | – | – | Cc1cc(SCc2noc(-c3ccc(C(F)(F)F)cc3)c2C)ccc1Cc1noc(=O)[nH]1 [α-7-3-1, 3-[2-methyl-4-[4-methyl-5-(4-trifluoromethylphenyl)isoxazole-3-ylmethylsulfanil]benzil]-4H-[1,2,4]oxadiazole-5-on]
129 to 131 | 9.9 | – | – | Cc1cc(SCc2noc(-c3ccc(C(F)(F)F)cc3)c2C)ccc1OCC(=O)O [β-1-3]
157 to 159 | 11 | – | – | Cc1cc(SCc2noc(-c3ccc(Cl)cc3)c2C)ccc1OCC(=O)O [β-1-8]
105 to 107 | 1.5 | – | – | COCc1c(CSc2ccc(OCC(=O)O)c(C)c2)noc1-c1ccc(C(F)(F)F)cc1 [β-1-15]
261 to 262.5 | – | – | – | Cc1c(COc2ccc(C=CC(=O)O)cc2F)noc1-c1ccc(C(F)(F)F)cc1 [β-2-15, 3-{3-Fluoro-4-[4-methyl-5-(4-trifluoromethylphenyl)isoxazole-3-ylmethoxy]phenyl}acrylic acid]
179.5 to 181.5 | – | 47 | 35 | Cc1cc(SCc2cc(-c3ccc(C(F)(F)F)cc3)on2)ccc1/C=C/C(=O)O [β-2-38]
159 to 160 | – | – | – | Cc1c(COc2ccc3c(ccn3CC(=O)O)c2)noc1-c1ccc(C(F)(F)F)cc1 [β-3-1, {5-[4-Methyl-5-(4 trifluoromethylphenyl)isoxazole-3-ylmethoxy]indole-1-yl}acetic acid]
139 to 141 | 16 | – | – | Cc1c(CSc2ccc3c(ccn3CC(=O)O)c2)noc1-c1ccc(C(F)(F)F)cc1 [β-4-1, {5-[4-Methyl-5-(4-trifluoromethylphenyl)isoxazole-3-ylmethylsulfanil]indole-1-yl}acetic acid]
139 to 141 | 14 | – | – | Cc1c(CSc2ccc(-c3sccc3C(=O)O)cc2)noc1-c1ccc(C(F)(F)F)cc1 [β-5-1, 2-{4-[4-Methyl-5-(4-trifluoromethylphenyl)isoxazole-3-ylmethylsulfanil]phenyl}thiophene-3-carboxylic acid]
